The subject of one series is cutaneous tissue. Particulars: in vivo; cited from earlier work.
The test system of a further series is DNA. As to conditions: cited from earlier work.
The test system of series [1] is Saccharomyces cerevisiae. The experiment in a line: Repair of photoinduced lesions in yeast (repair mutants, agar holding). The series is classed as cell-based. As to conditions: wild-type cells. From the text: Biophys. Acta, 395, 393-404.
Consequently, it appears that the excision repair pathway in wild type and rad9-4 cells is essential in AHR for both compounds.

Series [2] is described as follows: Comparison of activity with compounds of analogous structure. Particulars: comparison with the compounds of the invention. An excerpt:
V. In order to compare the activity of the compounds of the invention with compounds having an analogous structure

Series [3] has as its system Saccharomyces cerevisiae. Put plainly: Induction of nuclear back mutations (his- to His+) in yeast. Particulars: vs 3-CPs or angelicin plus 365 nm light. As for the experimental part: A wild-type strain 211-1aM (29) of Saccharomyces cerivisiae was used, and the following mutants derived from it: S24-12c rad2-20 deficient in excision repair and S25-13b rad9-4 likely to be blocked in a recombinational repair pathway; a double mutant S 2057NL-24 rad2-20 -rad9-4 clone B was obtained by tetrad analysis of a heterozygote [formula]
The media and culture conditions used were as described in D. Averbeck, E. Moustacchi, (1975) Biochim. Biophys. Acta, 395, 393-404.
10^6 cells/ml in saline (0.9% NaCl) were treated for 30 minutes with the drugs at a final concentration of 10 μg/ml and 1.2% ethanol present.
A Philips HPW 125 culot Edison high pressure mercury lamp was used with maximal output at the wavelength 365 nm. The irradiation dose measured by actinometry was 10 J/m^2 per sec., using the following set up: 10 ml of actinometer solution (or the cell suspension, usually 1×10^6 cells/ml), stirred continuously by a magnetic stirrer, were irradiated at room temperature in an open Petri dish of 10 cm diameter at a distance of 10 cm from the center of the light bulb which was mounted horizontally. A 2 mm thick pyrex glass sheet (20×25 cm) was placed in the center of the light beam to cut out UV light of wavelength below 340 nm. […]

The test system of series [4] is skin of homozygote albino mice strain XVII nc/Z. The experiment in a line: Chronic topical application on the ears of mice plus 365 nm UV irradiation (tumors, skin reactions). It counts as in vivo. As for the experimental part: The experiments were effected on groups of 40 mice, male and female.
After 115 topical applications of psoralen, followed each time by 10 minutes of irradiation (cumulative doses of 2.07×10^6 J/m^2), 100% of the animals developed a tumor; 50% having tumors on two ears.
3-CPs was also tested intraperitoneally (36 injections of 0.4 mg each over a period of 7 weeks).
In all these experiments the U.V. lamp was of the type of HPW 125 W, manufactured by Philips.

Where [5] appears, read: 115 topical applications, cumulative doses 2.07×10^6 J/m^2.

Consider 3,4-dibenzo-5,8-dimethylpsoralen, for which, in the series with cutaneous tissue, the photosensitizing activity entry is “inactive or to induce very weak photosensitivity”.

With `Cc1cc2cc3c(C)c(C)c(=O)oc3c(C)c2o1` [3,4,5',8-tetramethylpsoralen], in the series on cutaneous tissue, the photosensitizing activity entry is “inactive or to induce very weak photosensitivity”. `Cc1cc2cc3c4c(c(=O)oc3c(C)c2o1)CCCC4` [3,4-cyclohexeno-5',8-dimethylpsoralen]: the photosensitizing activity entry in the series with cutaneous tissue was “inactive or to induce very weak photosensitivity”. For the compound `Cc1cc2cc3cc(C)c(=O)oc3c(C)c2o1` [3,5',8-trimethylpsoralen], the photosensitizing activity entry in the series with cutaneous tissue is “inactive or to induce very weak photosensitivity”. In the case of `Cc1cc2cc3ccoc3cc2oc1=O` [3-methylpsoralen], the photosensitizing activity entry with cutaneous tissue was “inactive or to induce very weak photosensitivity”. As for `CCCCc1c(C)c2cc3cc(C)oc3c(C)c2oc1=O` [3-n-butyl-4,5',8-trimethylpsoralen], in the series with cutaneous tissue, the photosensitizing activity result is “inactive or to induce very weak photosensitivity”.

As to `Cc1cc2cc3c(C)cc(=O)oc3c(C)c2o1` [4,5',8-trimethylpsoralen], the “reactivity with DNA in vitro relative to 8-MOP” value with DNA (in vitro) is listed as “about 12 times more reactive”. In the case of `O=c1ccc2ccc3occc3c2o1` [angelicin], in the series with Saccharomyces cerevisiae [1], the “kinetics of agar holding recovery (AHR)” value is given as “same kinetics of AHR”. Besides, the “binding to DNA and RNA” value in the series with DNA was “bind equally well to DNA and RNA”. For the compound `CC(C)(C)OC(=O)c1cc2cc3ccoc3cc2oc1=O` [psoralen 3-t-butylcarboxylate], the result in series [2] was inactive. Take `O=c1ccc2cc3ccoc3cc2o1` [psoralen]: the “effectiveness in inducing nuclear back mutations (his- to His+) relative to monofunctional furocoumarins or 254 nm UV alone” value in the series on Saccharomyces cerevisiae [3] is “at least 10 fold”. The “kinetics of agar holding recovery (AHR)” value in the series with Saccharomyces cerevisiae [1] is on record as “same kinetics of AHR”. The “animals developing a tumor on ears” value in series [4] (24 applications, cumulative dose 4.5×10^5 J/m^2) is 3%. Further, in series [4] (setting [5]), the “animals developing a tumor on ears” value was 100% and the “animals having tumors on two ears” value is on record as 50%. In series [4] (chronic topical, two ears, 365 nm UV), the cutaneous reactions result is “significant cutaneous reactions, such as an erythema, followed by intensive chronic inflammation even followed by necrosis”. The “dose dependence of tumor development on ears” value in series [4] (mouse, in vivo) is reported as “dose dependent”. Besides, the photosensitizing activity result in the series with cutaneous tissue is recorded as “most effective photo-sensitizers”.

(Values after patent publication US4260630A, “Skin diseases” (priority 1977, dated 1981).)
